According to US8703776B2 (Cymabay Therapeutics, Inc., priority 2011, dated 2014):

Target: T1, human GPR131 (Homo sapiens, UniProt Q8TDU6)
T1 construct: expressed in transfected cells
T1 sequence (Q8TDU6 1-330): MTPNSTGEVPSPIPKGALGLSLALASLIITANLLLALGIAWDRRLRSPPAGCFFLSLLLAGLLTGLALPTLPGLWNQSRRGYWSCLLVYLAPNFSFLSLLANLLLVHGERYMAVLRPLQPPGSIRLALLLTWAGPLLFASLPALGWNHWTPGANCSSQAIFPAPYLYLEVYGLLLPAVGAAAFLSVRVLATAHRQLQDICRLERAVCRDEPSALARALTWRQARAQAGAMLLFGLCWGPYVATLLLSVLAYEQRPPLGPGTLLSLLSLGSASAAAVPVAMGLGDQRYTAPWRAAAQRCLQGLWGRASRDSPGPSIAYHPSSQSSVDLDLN
Assay: Stimulation of cAMP in stable cell line expressing human GPR131 (FRET cAMP kit)
Type: cell-based
Settings: 0.5 h; 1.1 μM compound, relative to maximal stimulatory activity of lithocholic acid at 3.3 μM; 30 minutes at 37° C.; read-out: Percent Activity @ 1.1 μM (of 3.3 uM LCA) (%)
Procedure: This assay was developed using a stable cell line expressing human GPR131.
To measure cAMP activity in response to GPR131 agonists, GPR131 cells suspended in DMEM/F12 medium with 1 mM IBMX were seeded in 384 well plates at 5000 cells per well. After incubating with test compounds at 37° C. for 30 minutes cAMP was measured using a fluorescene resonance energy transfer cAMP kit from Cis Bio (Bedford, Mass.) according to the manufacturer's instructions. Briefly, cells were lysed, and cAMP levels determined by competitive immunoassay using D2 labeled cAMP, and europium cryptate tagged anti cAMP antibody. Decreases in the FRET signal (fluorescence ratio (665 nm/620 […]) correspond to increases in intracellular cAMP levels.
Activities of test compounds in Table 1 below are expressed as % activity at 1.1 μM compound compared to the maximal stimulatory activity of lithocholic acid (LCA) (determined at 3.3 μM LCA)

| activation at 1.1 µM [%] | SMILES |
| --- | --- |
| 100 | Cc1nn(C)cc1CN(C)Cc1cnc(SCc2c(F)ccc(F)c2F)n1-c1ccc(F)cc1 [Compound 506, 1-(1,3-Dimethyl-1H-pyrazol-4-yl)-N-((1-(4-fluorophenyl)-2-((2,3,6-trifluorobenzyl)thio)-1H-imidazol-5-yl)methyl)-N-methylmethanamine] |
| 100 | CCN(Cc1cn(C)nc1C)C(=O)c1cnc(SCc2c(F)ccc(F)c2F)n1-c1ccc(F)cc1 [Compound 519, N-((1,3-Dimethyl-1H-pyrazol-4-yl)methyl)-N-ethyl-1-(4-fluorophenyl)-2-((2,3,6-trifluorobenzyl)thio)-1H-imidazole-5-carboxamide] |
| 96 | Cc1nn(C)cc1C(C)N(C)C(=O)c1cnc(SCc2c(F)ccc(F)c2F)n1-c1ccc(F)cc1 (stereo not drawn) [Compound 526, N-(1-(1,3-Dimethyl-1H-pyrazol-4-yl)ethyl)-1-(4-fluorophenyl)-N-methyl-2-((2,3,6-trifluorobenzyl)thio)-1H-imidazole-5-carboxamide] |
| 95 | CN(Cc1ccncc1)C(=O)c1cnc(CCc2c(F)ccc(F)c2F)n1-c1ccc(F)cc1 [Compound 528, 1-(4-Fluorophenyl)-N-methyl-N-(pyridin-4-ylmethyl)-2-(2,3,6-trifluorophenethyl)-1H-imidazole-5-carboxamide] |

Further lines, the compound ahead of its results:

| SMILES | activation at 1.1 µM [%] |
| --- | --- |
| COc1ccc(CN(C)C(=O)c2cnc(SCc3c(F)ccc(F)c3F)n2-c2ccc(F)cc2)cc1OC [Compound 507, N-(3,4-Dimethoxybenzyl)-1-(4-fluorophenyl)-N-methyl-2-((2,3,6-trifluorobenzyl)thio)-1H-imidazole-5-carboxamide] | 93 |
| Cc1nn(C)cc1CNC(=O)c1cnc(SCc2c(F)ccc(F)c2F)n1-c1ccc(F)cc1 [Compound 508, N-((1,3-Dimethyl-1H-pyrazol-4-yl)methyl)-1-(4-fluorophenyl)-2-((2,3,6-trifluorobenzyl)thio)-1H-imidazole-5-carboxamide] | 82 |
| CN(Cc1ccncc1)C(=O)c1cnc(SCc2c(F)ccc(F)c2F)n1-c1ccc(F)cc1 [Compound 518, 1-(4-Fluorophenyl)-N-methyl-N-(pyridin-4-ylmethyl)-2-((2,3,6-trifluorobenzyl)thio)-1H-imidazole-5-carboxamide] | 100 |
| CN(Cc1cnn(C)c1)C(=O)c1cnc(SCc2c(F)ccc(F)c2F)n1-c1ccc(F)cc1 [Compound 520, 1-(4-Fluorophenyl)-N-methyl-N-((1-methyl-1H-pyrazol-4-yl)methyl)-2-((2,3,6-trifluorobenzyl)thio)-1H-imidazole-5-carboxamide] | 98 |
| Cc1nc(C)c(CN(C)C(=O)c2cnc(SCc3c(F)ccc(F)c3F)n2-c2ccc(F)cc2)s1 [Compound 522, N-((2,4-Dimethylthiazol-5-yl)methyl)-1-(4-fluorophenyl)-N-methyl-2-((2,3,6-trifluorobenzyl)thio)-1H-imidazole-5-carboxamide] | 100 |
| Cc1nn(C)cc1CN(C)C(=O)c1cnc(CCc2c(F)ccc(F)c2F)n1-c1ccc(F)cc1 [Compound 523, N-((1,3-Dimethyl-1H-pyrazol-4-yl)methyl)-1-(4-fluorophenyl)-N-methyl-2-(2,3,6-trifluorophenethyl)-1H-imidazole-5-carboxamide] | 96 |
| Cc1nn(C)cc1CN(C)C(=O)c1cnc(SCC(=O)c2ccccc2)n1-c1ccc(F)cc1 [Compound 525, N-((1,3-Dimethyl-1H-pyrazol-4-yl)methyl)-1-(4-fluorophenyl)-N-methyl-2-((2-oxo-2-phenylethyl)thio)-1H-imidazole-5-carboxamide] | 96 |
| Fc1ccc(-n2c(COCc3ccncc3)cnc2SCc2c(F)ccc(F)c2F)cc1 [Compound 530, 4-(((1-(4-Fluorophenyl)-2-((2,3,6-trifluorobenzyl)thio)-1H-imidazol-5-yl)methoxy)methyl)pyridine] | 100 |
